Residues, ends and D or L forms follow the SMILES beside them.
Tests used:
Set-up in all cases: species or system group A streptococcus
[1] = tested on: type II Fc receptor on group A streptococcal strain 64/14/HRP; experiment: Inhibition of 125I-labeled IgG binding to type II Fc receptor-positive bacteria by dipeptides or histidine; conditions: whole bacteria 64/14/HRP, 1.5 hr at 37° C., 20,000 cpm 125I human IgG; concentration range, see FIG. 7, FIG. 9
Procedure: Staphylococcus aureus Cowan I served as the representative type I Fc receptor-positive strain. The group A streptococcal strain 64/14/HRP served as a representative type II Fc receptor-positive strain. The group C streptococcal strain 26RP66 served as a representative type III Fc receptor-positive strain. All strains were grown as stationary cultures in Todd Hewitt broth (Difco) for 18-24 hr at 37° C., harvested by centrifugation and washed in phosphate buffered saline (PBS), pH 7.2.
Glycyl-L-tyrosine, glycyl-L-histidine, glycyl-glycine, glycyl-DL-leucine, glycyl-DL-phenylalanine, and L-histidine were utilized in the tests.
The detection of Fc-reactive proteins on the surface of bacteria was determined by the ability of the bacteria to bind ^125 I-labeled IgG as follows: Briefly, a stock preparation of bacteria was standardized to bind approximately 75% of the 20,000 cpm of labeled IgG added at pH 7.0. Following standardization for the Fc receptor activity, aliquots of bacteria were incubated with ^125 I-labeled IgG and the indicated amount of the dipeptides for 1.5 hr. at 37° C. […] The radioactivity associated with the bacteria was determined in an LKB autogamma counter. The cpm bound to the bacterial pellet were expressed as percent of maximum cpm bound. […]
A standard number of Staphylococcus aureus Cowan strain ( -- ), group C streptococcal strain 26RP66 (.largecircle.--.largecircle.), or the group A streptococcal strain 64/14/HRP ( .circle.--.circle. ) was incubated for 1.5 hr. at 37° C. with 20,000 cpm of ^125 I labeled human IgG in the presence of the indicated amounts of dipeptide. […] The radioactivity associated with the bacteria was determined in an LKB autogamma counter. The cpm bound to the bacterial pellet were expressed as percent of maximum cpm bound.
A standard number of group A streptococci was incubated for 1.5 hr. at 37° C. with 20,000 cpm of the appropriately ^125 I-labeled species IgG in the presence of the indicated amounts of histidine. […] The cpm bound to the bacterial pellet were expressed as percent of maximum cpm bound. […]

[2] = tested on: type IIb Fc receptor (Mr 38,000; IgG3-specific receptor) of group A streptococcal strain 64/14/HRP; experiment: Inhibition of 125I-labeled human IgG3 binding to strain 64/14/HRP; conditions: whole bacteria 64/14/HRP, 1.5 hr at 37° C., varying concentrations; FIG. 8 panel C
Procedure: (§1) In the next series of experiments, the ability of the inhibitory dipeptides, glycyl-tyrosine and glycyl-histidine, were tested for their ability to inhibit the binding of each labeled human IgG subclass to the type II receptor-positive 64/14/HRP bacteria. Glycyl-glycine was also included as a negative control.
(§2) A standard number of group A streptococci was incubated for 1.5 hr. at 37° C. with 20,000 cpm of the approprimately ^125 I-labeled human IgG subclasses in the presence of varying concentrations of dipeptide. The bacteria were pelleted by centrifugations of 1000×g for 10 min. and washed twice with 3 ml of veronal buffered saline containing 0.01 M EDTA and 0.1% gelatin. The radioactivity associated with the bacteria was determined in an LKB autogamma counter. The cpm bound to the baterial pellet were expressed as percent of maximum cpm bound. See FIG. 8 wherein Panel A represents the results obtained from the binding of ^125 I IgG1. Panel B represents the results obtained from the binding of ^125 I IgG2. Panel C represents the results obtained from the binding of ^125 I IgG3. Panel D represents the results obtained from the binding of ^125 I IgG4.

[3] = tested on: type IIa Fc receptor (Mr 56,000; receptor for human IgG1, IgG2 and IgG4) of group A streptococcal strain 64/14/HRP; experiment: Inhibition of 125I-labeled IgG1, IgG2, IgG4, pig or rabbit IgG binding to strain 64/14/HRP; conditions: whole bacteria 64/14/HRP, 1.5 hr at 37° C.; for inhibition of binding of labeled human IgG1, IgG2 and IgG4 to the bacteria: varying concentrations, FIG. 8 panels A, B, D; for inhibition of binding of labeled pig or rabbit IgG to the bacteria: FIG. 9
Procedure: as §1, §2
In the next series of experiments the effect of histidine, glycyl-histidineor glycyl-tyrosine on the binding of labeled pig or rabbit IgG was tested.
A standard number of group A streptococci was incubated for 1.5 hr. at 37° C. with 20,000 cpm of the appropriately ^125 I-labeled species IgG in the presence of the indicated amounts of histidine. The bacteria were washed as described above. The cpm bound to the bacterial pellet were expressed as percent of maximum cpm bound. In FIG. 9, ( .circle.--.circle. ) represents ^125 I human IgG; ( -- ) represents ^125 I pig IgG; and ( -- ) represents rabbit IgG.

Compound	inhibition of binding of 125I-labeled human IgG to type II Fc receptor positive bacteria [1]	inhibition of binding of labeled human IgG3 to the bacteria [2]	inhibition of binding of labeled human IgG1, IgG2 and IgG4 to the bacteria [3]	inhibition of binding of labeled pig or rabbit IgG to the bacteria [3]
NCC(=O)N[C@@H](Cc1c[nH]cn1)C(=O)O [glycyl-histidine, glycyl-L-histidine] (H-Gly-His-OH)	inhibition	minimal inhibition	efficiently inhibit	inhibited
NCC(=O)N[C@@H](Cc1ccc(O)cc1)C(=O)O [glycyl-tyrosine, Glycyl-L-tyrosine] (H-Gly-Tyr-OH)	inhibition	minimal inhibition	efficiently inhibit	inhibited
N[C@@H](Cc1c[nH]cn1)C(=O)O [histidine, L-histidine]	inhibited	minimal inhibition	inhibited	inhibited

— patent US5082931A, “Type II bacterial Fc receptors” (University of Florida Research Foundation, Inc., priority 1989, dated 1992)
